In assay [1] the test system is Staphylococcus aureus - MSSA. As to the kind of experiment: Antimicrobial assay, MIC (NCCLS M7-A5). The assay is classed as cell-based, Staphylococcus aureus (methicillin sensitive). As to the method:
(§1) Minimum inhibitory concentrations (MICs) were determined according to the National Committee for Clinical Laboratory Standards (NCCLS) susceptibility test guideline M7-A5 (Ferraro, M. 2001 Methods for Dilution Antimicrobial Susceptibility Tests for Bacteria that Grow Aerobically; Approved Standard (NCCLS). National Committee for Clinical Laboratory Standards (NCCLS), Villanova, which is incorporated herein by reference in its entirety). The compound of formula VI was tested in DMSO while the compound of formula VII was tested in aqueous MeOH. The compound of formulae VIII and IX were tested in DMSO.

A further assay deals with PSSP. As to the kind of experiment: Antimicrobial assay, MIC (NCCLS M7-A5). It is filed as cell-based, Streptococcus pneumonia (penicillin sensitive). Conditions: Streptococcus pneumoniae. As to the method:
as §1

Assay [2] has as its system Staphylococcus aureus - MRSA. As to the kind of experiment: Antimicrobial assay, MIC (NCCLS M7-A5). The assay is classed as cell-based, Staphylococcus aureus (methicillin resistant). As for the experimental part:
as §1

Another assay has as its system H. inf. 49766. Briefly: Antimicrobial assay, MIC (NCCLS M7-A5). The assay is classed as cell-based. The following applies: Haemophilus influenzae. As for the experimental part:
as §1

The test system of a further assay is H. inf. 49247. As to the kind of experiment: Antimicrobial assay, MIC (NCCLS M7-A5). Conditions: Haemophilus influenzae. It is filed as cell-based. As for the experimental part: as §1
For assay [3], the system named is Gram-negative microorganism Haemophilus influenzae. Briefly: Antimicrobial assays, summary for Haemophilus influenzae. It is filed as cell-based. As for the experimental part: as §1
The test system of assay [4] is Gram-positive microorganisms tested. As to the kind of experiment: Antimicrobial assays, summary for Gram-positive microorganisms. It is filed as cell-based. As for the experimental part: as §1
Another assay has as its system VRE. Briefly: Antimicrobial assay, MIC (NCCLS M7-A5). The assay is classed as cell-based, Enterococcus faecium (vancomycin resistant). The following applies: Enterococcus. As to the method: as §1
For the next assay, the system named is B16-F10 cells. As to the kind of experiment: Growth inhibition of murine melanoma B16-F10 cells (resazurin fluorescence). It is filed as cell-based. As for the experimental part: B16-F10 (ATCC; CRL-6475) a murine melanoma cell line was maintained in complete Dulbecco's Modification of Eagle's Medium (DMEM) (DMEM supplemented with 10% (v/v) Fetal bovine serum, 2 mM glutamine, 10 mM HEPES and Penicillin/Streptomycin at 100 IU/ml and 100 μg/ml respectively). The cells were cultured in an incubator at 37° C. in 5% CO2 and 95% humidified air. […] 20 mM stock solutions of formula VI were prepared in 100% DMSO. 10× concentrated serial dilutions of formula VI were prepared in complete media. Ten μl volumes of the serial dilutions were added to the test wells in triplicate resulting in final concentrations ranging from 20 μM to 6.32 nM. The plates were returned to the incubator for 48 hours. The final concentration of DMSO was 0.25% in all samples. Following 48 hours of drug exposure, 10 μl of 0.2 mg/ml resazurin (obtained from Sigma-Aldrich Chemical Co.) in Mg^2+, Ca^2+ free phosphate buffered saline was added to each well and the plates were returned to the incubator for 3-6 hours. Since living cells metabolize Resazurin, the fluorescence of the reduction product of Resazurin was measured using a Fusion microplate fluorometer (Packard Bioscience) with λex=535 nm and λem=590 nm filters. Resazurin dye in medium without cells was used to determine the background, which was subtracted from the data for all experimental wells. […]
(In general: The colour change of resazurin is a common sign of viable cells or microbes.)

The next assay deals with PRSP. Briefly: Antimicrobial assay, MIC (NCCLS M7-A5). It is filed as cell-based, Streptococcus pneumonia (penicillin resistant). The following applies: Streptococcus pneumoniae. As to the method:
as §1

The next assay deals with S. epi. 700578. As to the kind of experiment: Antimicrobial assay, MIC (NCCLS M7-A5). The following applies: Staphylococcus. It is filed as cell-based, Staphylococcus epidermis (multiple drug resistant). As for the experimental part:
as §1

A further assay has as its system S. epi. 700582. As to the kind of experiment: Antimicrobial assay, MIC (NCCLS M7-A5). The assay is classed as cell-based, Staphylococcus epidermis (multiple drug resistant). Conditions: Staphylococcus. As to the method: as §1
The test system of a further assay is VSE. As to the kind of experiment: Antimicrobial assay, MIC (NCCLS M7-A5). The assay is classed as cell-based, Enterococcus faecalis (vancomycin sensitive). The following applies: Enterococcus faecalis. As for the experimental part:
as §1

For the next assay, the system named is E. c. 25922. As to the kind of experiment: Antimicrobial assay, MIC (NCCLS M7-A5). It is filed as cell-based. As for the experimental part: as §1
Another assay relates to Candida albicans. As to the kind of experiment: Antimicrobial assay, MIC (NCCLS M7-A5). It is filed as cell-based. As to the method:
as §1

For another assay, the system named is E. c. imp. Briefly: Antimicrobial assay, MIC (NCCLS M7-A5). It is filed as cell-based. As for the experimental part:
as §1

In another assay the test system is E. c. MCR106. As to the kind of experiment: Antimicrobial assay, MIC (NCCLS M7-A5). The assay is classed as cell-based. As to the method: as §1

On to `CCCCCCC/C(C)=C/C(=O)CC(=N)OC(CCCC)C(=O)O` (stereo not shown) [Formula IX], for which the MIC in assay [1] (tested in DMSO) is 24 µg/mL; against PSSP (tested in DMSO), greater than 32 µg/mL; in assay [2] (tested in DMSO), greater than 32 µg/mL; with H. inf. 49766 (tested in DMSO), greater than 32 µg/mL; in the assay with H. inf. 49247 (tested in DMSO) it was greater than 32 µg/mL.

What is called EC50 is the concentration giving half of the maximal effect. Consider `CCCCCCC/C(C)=C/C(=O)C=C1NC(=O)C(CCCC)O1` (stereo not shown) [Formula VI], for which the “activity against the Gram-negative microorganism Haemophilus influenzae (statement in words)” value in assay [3] is “weakly active”. For the same compound, the “anti-bacterial activity versus the Gram-positive microorganisms tested (statement in words)” value in assay [4] is listed as “possess anti-bacterial activity”. Further, the MIC in the assay on VRE (tested in DMSO) was determined as 1.83 µg/mL; in [1] (tested in DMSO) it was 0.88 µg/mL; against PSSP (tested in DMSO) it was 2.58 µg/mL; in [2] (tested in DMSO), 1.04 µg/mL; with PRSP (tested in DMSO) it was 4.67 µg/mL; in the assay with S. epi. 700578 (tested in DMSO), 0.54 µg/mL. The MIC is 0.54 µg/mL in the assay on S. epi. 700582 (tested in DMSO); 3.67 µg/mL with VSE (tested in DMSO); 12 µg/mL against H. inf. 49766 (tested in DMSO); 12 µg/mL in the assay with H. inf. 49247 (tested in DMSO); greater than 32 µg/mL against E. c. 25922 (tested in DMSO); greater than 32 µg/mL against Candida albicans (tested in DMSO). The MIC in the assay on E. c. imp (tested in DMSO) and in the assay with E. c. MCR106 (tested in DMSO) was greater than 32 µg/mL throughout. In the assay on B16-F10 cells, the “growth of B16-F10 tumor cells (statement in words)” value is reported as “inhibits the growth”. Besides, the EC50 in the assay with B16-F10 cells (Mus musculus, B16-F10, 48 hours drug exposure, mean ± standard deviation of three independent experiments, read-out: EC50 against B16-F10 cells) is 6 ± 2.6 µM.

Consider `CCCCCC/C(C)=C/C(=O)C=C1NC(=O)C(CCCC)O1` (stereo not shown) [Formula VIII], for which the “activity against the Gram-negative microorganism Haemophilus influenzae (statement in words)” value in assay [3] is listed as “weakly active”. The “anti-bacterial activity versus the Gram-positive microorganisms tested (statement in words)” value in assay [4] is recorded as “possess anti-bacterial activity”. Further, the MIC was 4 µg/mL in [1] (tested in DMSO); 10 µg/mL in the assay with PSSP (tested in DMSO); 3 µg/mL in [2] (tested in DMSO); 5 µg/mL against H. inf. 49766 (tested in DMSO); 16 µg/mL with H. inf. 49247 (tested in DMSO).

`CCCCCCC/C(C)=C/C(=O)C=C1NC(=O)C(CCCCC)O1` (stereo not shown) [Formula VII]: in assay [3], the “activity against the Gram-negative microorganism Haemophilus influenzae (statement in words)” value is recorded as “weakly active”. In addition, the “anti-bacterial activity versus the Gram-positive microorganisms tested (statement in words)” value in [4] is given as “possess anti-bacterial activity”. Further, the MIC against VRE (tested in aqueous MeOH) was found to be 1.5 µg/mL; in assay [1] (tested in aqueous MeOH), 6 µg/mL; with PSSP (tested in aqueous MeOH), 8 µg/mL; in assay [2] (tested in aqueous MeOH) it was 1.5 µg/mL; against PRSP (tested in aqueous MeOH), 6 µg/mL; in the assay on S. epi. 700578 (tested in aqueous MeOH), 1.25 µg/mL. The MIC in the assay on S. epi. 700582 (tested in aqueous MeOH) was 0.75 µg/mL; in the assay with VSE (tested in aqueous MeOH) it was 3 µg/mL; in the assay with H. inf. 49766 (tested in aqueous MeOH) it was 16 µg/mL; with H. inf. 49247 (tested in aqueous MeOH), 12 µg/mL; in the assay on E. c. 25922 (tested in aqueous MeOH), greater than 32 µg/mL; in the assay with Candida albicans (tested in aqueous MeOH), greater than 32 µg/mL. For the same compound, the MIC in the assay with E. c. imp (tested in aqueous MeOH) and in the assay with E. c. MCR106 (tested in aqueous MeOH) was greater than 32 µg/mL each time.

Source of the values: US7378530B2, “Anti-cancer and anti-microbial 5-membered heterocyclic compounds” (Nereus Pharmaceuticals, Inc., priority 2005, dated 2008).
